Here are results for 12 molecules from ChEMBL document CHEMBL1201862, “PubChem BioAssay data set” (2004).

“And” between values parts separate entries of the source, which are not always exact repeats. Equal entries are not always repeated.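 Five concentrations, 48 hours, 96-well plates. The concentration for 50% growth inhibition is given as GI50.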 The source made the active and inactive calls. Cut-off read from the data, not from the text of the source: active = GI50 up to about 1.1 µM and inactive = higher.

Some test systems named below: SF-295; A498; SK-MEL-2; ACHN; HL-60; RXF 393; KM12; COLO 205; SN12C; UO-31; CAKI-1; SK-MEL-5; K562; NCI-H23; 786-0; OVCAR-8; MCF7; DU-145; PC-3; MDA-MB-231.
What all share (experiment): NCI anticancer screen, dose series, 48 h

For `Cc1nc(Nc2ccc([N+](=O)[O-])cc2)sc1C(=O)/C=C/c1ccc(N(C)C)cc1`, the GI50 in the test with SF-295 was 40.1 µM (inactive); in the test on A498, 49.2 µM (inactive); with SK-MEL-2, 64.3 µM (inactive); with ACHN, 48.3 µM (inactive); in the test on HL-60, 76.7 µM (inactive); with RXF 393, 30.4 µM (inactive). The GI50 was 57.8 µM (inactive) in the test on KM12; > 100 µM (inactive) in the test with COLO 205; > 100 µM (inactive) in the test with SN12C; 36.8 µM (inactive) in the test with UO-31; > 100 µM (inactive) with CAKI-1; 50.5 µM (inactive) in the test with SK-MEL-5. Also, the GI50 in the test with K562 was 37.8 µM (inactive); in the test on NCI-H23 it was > 100 µM (inactive); with 786-0 it was > 100 µM (inactive); in the test with OVCAR-8, 73.3 µM (inactive).
As for `c1ccc2c(CNCCCCCCNCc3cccc4ccccc34)cccc2c1`, the GI50 is 12.2 µM (inactive) with SF-295; 18.7 µM (inactive) in the test on A498; 1.65 µM (inactive) in the test with SK-MEL-2; 15.6 µM (inactive) with ACHN; 1.46 µM (inactive) in the test on HL-60; 2.19 µM (inactive) with RXF 393. The GI50 in the test on KM12 is 3.66 µM (inactive); with COLO 205, 1.66 µM (inactive); with SN12C it was 12.4 µM (inactive); with UO-31 it was 11.3 µM (inactive); in the test with CAKI-1, 7.38 µM (inactive); in the test on SK-MEL-5, 7.24 µM (inactive). The GI50 in the test on K562 is 1.56 µM (inactive); with NCI-H23, 16.4 µM (inactive); in the test on 786-0 it was 13 µM (inactive); with OVCAR-8 it was 14.5 µM (inactive).
Take `Cc1c(Cl)cccc1NC(=O)C(=O)C1C(=O)NC(=O)NC1=O`: the GI50 in the test on SF-295, in the test with A498, in the test on SK-MEL-2, in the test on ACHN, in the test on HL-60 and in the test with RXF 393 was > 100 µM (inactive) each time. Besides, the GI50 in the test on KM12, in the test with COLO 205, in the test on SN12C, with UO-31, with CAKI-1 and with SK-MEL-5 was > 100 µM (inactive) throughout. Also, the GI50 in the test with K562, in the test on NCI-H23, in the test with 786-0 and with OVCAR-8 was > 100 µM (inactive) throughout.
Take `O=c1[nH]c(=O)n(C2OC(COP(=O)(O)OP(=O)(O)O)C(O)C2O)cc1F` (stereo unspecified): the GI50 was 0.822 µM (active) with SF-295; 6.25 µM (inactive) with A498; 6.79 µM (inactive) with SK-MEL-2; 0.178 µM (active) in the test on ACHN; 7.43 µM (inactive) in the test on HL-60; 2.57 µM (inactive) in the test on RXF 393. For the same molecule, the GI50 with KM12 is 2.28 µM (inactive); in the test on COLO 205 it was 1.57 µM (inactive); in the test with SN12C, 0.916 µM (active); with UO-31, 6.08 µM (inactive); in the test on CAKI-1 it was 0.368 µM (active); in the test on SK-MEL-5 it was 4.31 µM (inactive). Besides, the GI50 was 0.184 µM (active) in the test with K562, 2.08 µM (inactive) in the test on NCI-H23, 0.239 µM (active) in the test on 786-0 and 2.11 µM (inactive) in the test on OVCAR-8.
Regarding `O=c1c(=O)c2c(Br)sc(Br)c2c1=O`, the GI50 is > 100 µM (inactive) in the test with SF-295; 20.3 µM (inactive) with MCF7; > 100 µM (inactive) with A498; 20.8 µM (inactive) in the test with SK-MEL-2; > 100 µM (inactive) in the test on DU-145; 20.6 µM (inactive) in the test on ACHN. Also, the GI50 with RXF 393 is 18.7 µM (inactive); in the test on KM12 it was > 100 µM (inactive); in the test on PC-3, 19.2 µM (inactive); with COLO 205, 20.3 µM (inactive); in the test with SN12C, 17.3 µM (inactive); in the test on UO-31 it was 33 µM (inactive). The GI50 in the test with CAKI-1 is 19.1 µM (inactive); in the test with SK-MEL-5, 16.9 µM (inactive); in the test on K562, 21.4 µM (inactive); with NCI-H23, 20.3 µM (inactive); in the test with 786-0, 22.6 µM (inactive); in the test on OVCAR-8, 18.3 µM (inactive).
For `COc1ccc2c3c(n(Cc4ccccc4)c(=O)c2c1)-c1cc(OC)c(OC)cc1C3C` (stereo unspecified), the GI50 with SF-295 was 11.6 µM (inactive); with A498 it was 30.5 µM (inactive); in the test with SK-MEL-2 it was 17 µM (inactive); in the test on ACHN, 11.5 µM (inactive); with HL-60, > 46.8 µM (inactive); with RXF 393, 12.3 µM (inactive). The GI50 was 23.3 µM (inactive) with KM12; 41.6 µM (inactive) with COLO 205; 14.7 µM (inactive) in the test on SN12C; 22.2 µM (inactive) with UO-31; 28.1 µM (inactive) with CAKI-1; 12.2 µM (inactive) with SK-MEL-5. Moreover, the GI50 is 9.89 µM (inactive) in the test on K562, 6.92 µM (inactive) in the test with NCI-H23, 7.45 µM (inactive) with 786-0 and 19.8 µM (inactive) with OVCAR-8.
With `O=C(O)c1ccccc1/C=N/N=C1NCCCCN1`, the GI50 in the test with SF-295, in the test on MCF7, in the test with A498, with SK-MEL-2, with MDA-MB-231 and in the test on ACHN was > 100 µM (inactive) throughout. Also, the GI50 with HL-60, in the test with RXF 393, with KM12, with PC-3, in the test on COLO 205 and in the test with UO-31 was > 100 µM (inactive) throughout. The GI50 with SK-MEL-5, in the test with K562, with NCI-H23, in the test on 786-0 and with OVCAR-8 was > 100 µM (inactive) each time.
Take `CCOc1ccc(NC(=O)C(=O)NO)cc1`: the GI50 in the test on SF-295, in the test on A498, in the test on SK-MEL-2, in the test with ACHN, in the test with HL-60 and in the test on RXF 393 was > 100 µM (inactive) in each case. Besides, the GI50 with KM12, with COLO 205, with SN12C, in the test with UO-31, in the test on CAKI-1 and in the test with SK-MEL-5 was > 100 µM (inactive) in each case. Also, the GI50 in the test on K562, with NCI-H23, with 786-0 and in the test with OVCAR-8 was > 100 µM (inactive) throughout.
As to `CN1CCC(CN2c3ccccc3Sc3ccccc32)CC1`, the GI50 is 15.8 µM (inactive) in the test on SF-295; 15.6 µM (inactive) in the test with A498; 17.1 µM (inactive) with SK-MEL-2; 16 µM (inactive) in the test on ACHN; 13 µM (inactive) in the test on HL-60; 3.07 µM (inactive) with RXF 393. The GI50 in the test with KM12 was 16 µM (inactive); with COLO 205, 14.1 µM (inactive); with SN12C it was 19.1 µM (inactive); in the test with UO-31, 10.1 µM (inactive); in the test with CAKI-1, 4.93 µM (inactive); in the test on SK-MEL-5, 7.19 µM (inactive). For the same molecule, the GI50 was 13.5 µM (inactive) in the test on K562, 16.4 µM (inactive) with NCI-H23, 14.3 µM (inactive) in the test on 786-0 and 17.5 µM (inactive) with OVCAR-8.
As for `COC(=O)C1OC(O[C@H]2CC[C@]3(C)[C@H]4CC=C5[C@@H]6CC(C)(C)CC[C@]6(C(=O)OC6OCC(O)C(O)C6OC6OC(C)C(OC7OCC(O)C(O)C7O)C(O)C6O)CC[C@@]5(C)[C@]4(C)CC[C@H]3C2(C)C)C(O)C(O)C1O` (stereo partly specified), the GI50 in the test on SF-295 is 18.2 µM (inactive) and 17.4 µM (inactive); in the test with MCF7, 13.5 µM (inactive) and 13 µM (inactive); in the test on SK-MEL-2 it was 19.7 µM (inactive) and 17.6 µM (inactive); in the test on DU-145, 18 µM (inactive) and 22.1 µM (inactive); with HL-60 it was 21.2 µM (inactive) and 19.1 µM (inactive); with RXF 393 it was 21.1 µM (inactive) and 19.5 µM (inactive). Also, the GI50 with KM12 was 15.6 µM (inactive) and 16.2 µM (inactive); in the test with PC-3 it was 14.4 µM (inactive) and 15.8 µM (inactive); in the test with COLO 205, 13.1 µM (inactive) and 16.9 µM (inactive); in the test on SN12C it was 13.4 µM (inactive) and 16.4 µM (inactive); in the test on UO-31 it was 13.2 µM (inactive) and 18.9 µM (inactive); in the test with CAKI-1 it was 12.9 µM (inactive) and 15.5 µM (inactive). Moreover, the GI50 with SK-MEL-5 was 17.9 µM (inactive) and 17.8 µM (inactive); with K562, 25.8 µM (inactive) and 26 µM (inactive); in the test with NCI-H23, 15.4 µM (inactive) and 15.8 µM (inactive); with 786-0, 15.7 µM (inactive) and 17.5 µM (inactive); with OVCAR-8 it was 21.4 µM (inactive) and 15.2 µM (inactive).
For `O=C(COc1ccc(Cl)cc1Cl)N/N=C/C=C/c1ccc([N+](=O)[O-])o1`, the GI50 in the test with SF-295 was 23.3 µM (inactive); in the test on MCF7, 4.14 µM (inactive); in the test with A498 it was 11.5 µM (inactive); in the test with SK-MEL-2, 3.27 µM (inactive); with MDA-MB-231, 6.95 µM (inactive); in the test with ACHN it was 4.63 µM (inactive). Moreover, the GI50 with HL-60 was 3.76 µM (inactive); in the test with RXF 393, 6.07 µM (inactive); with KM12, 4.86 µM (inactive); in the test with PC-3, 12.6 µM (inactive); with SN12C it was 8.47 µM (inactive); in the test with UO-31, 5.05 µM (inactive). Moreover, the GI50 is > 100 µM (inactive) with CAKI-1; 1.96 µM (inactive) in the test on SK-MEL-5; 4.43 µM (inactive) in the test on K562; 3.18 µM (inactive) with NCI-H23; 12.3 µM (inactive) in the test on 786-0; 3.44 µM (inactive) in the test with OVCAR-8.
As for `O=C(CC(=O)Nc1ccccc1)N/N=C/c1cc(/N=N/c2ccc(Br)cc2)ccc1O`, the GI50 in the test on MCF7 was 2.99 µM (inactive); in the test with MDA-MB-231, 3.26 µM (inactive); in the test with DU-145 it was 5.16 µM (inactive); in the test with HL-60 it was 2.44 µM (inactive); with KM12 it was 3.58 µM (inactive); in the test with COLO 205, 3.93 µM (inactive). Further, the GI50 in the test on SN12C was 8.22 µM (inactive); in the test with UO-31, 2.42 µM (inactive); with CAKI-1, 3.61 µM (inactive); in the test with SK-MEL-5, 8.79 µM (inactive); in the test on K562, 2.96 µM (inactive); in the test on NCI-H23 it was 2.6 µM (inactive). Moreover, the GI50 with 786-0 is 4 µM (inactive); with OVCAR-8, 3.93 µM (inactive).
